The compounds below were run on HCV 1b_Huh-Luc/Neo-ET cell line persistently expressing a bicistronic genotype 1b replicon in Huh 7 cells (assay: HCV replicon assay (luciferase readout)). Conditions: Hepatitis C virus, Huh-7, 72 h, read-out: Inhibition of HCV genotype 1b.
Format: cell-based
How it was run: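 EC50, determined repeatedly, comes from a four-parameter logistic fit of luciferase signal as percent of untreated control. Readout follows 72 h compound exposure, in triplicate, of the HCV 1b_Huh-Luc/Neo-ET replicon line.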

COC(=O)N[C@@H](C(=O)N1CCC[C@H]1c1ncc(-c2ccc(C#Cc3ccc(-c4cnc([C@@H]5CCCN5C(=O)[C@H]5CCCN5C)[nH]4)cc3)cc2)[nH]1)c1ccccc1 [Compound 187] and COC(=O)N[C@@H](C(=O)N1CCC[C@H]1c1ncc(-c2ccc(C#Cc3ccc(-c4cnc([C@@H]5CCCN5C(=O)C5(c6ccccc6)CC5)[nH]4)cc3)cc2)[nH]1)c1ccccc1 [Compound 257] cannot be ordered by EC50: < 1 nM for the first, < 1 nM for the second.

COC(=O)N[C@@H](C(=O)N1CCC[C@H]1c1ncc(-c2ccc(C#Cc3ccc(-c4cnc([C@@H]5CCCN5C(=O)[C@H](NS(C)(=O)=O)c5ccccc5)[nH]4)cc3)cc2)[nH]1)c1ccccc1 [Compound 225] and COC(=O)N[C@@H](C(=O)N1CCC[C@H]1c1ncc(-c2ccc(C#Cc3ccc(-c4cnc([C@@H]5CCCN5C(=O)[C@H](NC(=O)C5CC5)c5ccccc5)[nH]4)cc3)cc2)[nH]1)c1ccccc1 [Compound 218] cannot be ordered by EC50: < 1 nM for the first, < 1 nM for the second.

First: C[C@H]1OC(=O)N(C)[C@@H]1C(=O)N1CCC[C@H]1c1ncc(-c2ccc(C#Cc3ccc(-c4cnc([C@@H]5CCCN5C(=O)[C@@H]5[C@@H](C)OC(=O)N5C)[nH]4)cc3)cc2)[nH]1 [Compound 980]
Second: COC(=O)N[C@H](C(=O)N1CCC[C@H]1c1ncc(-c2ccc(C#Cc3ccc(-c4cnc([C@@H]5CCCN5C(=O)[C@H](C(C)C)N(C)C)[nH]4)cc3)cc2)[nH]1)C(C)C [Compound 953]
The EC50 of the first is higher: 10 to 999 nM for the first, 1 to 9.9 nM for the second.

First: O=S(=O)(Cc1ccccc1)N1CCC[C@H]1c1ncc(-c2ccc(C#Cc3ccc4nc([C@@H]5CCCN5S(=O)(=O)Cc5ccccc5)[nH]c4c3)cc2)[nH]1 [Compound 1042]
Second: COC(=O)N[C@@H](C(=O)N1CCC[C@H]1c1ncc(-c2ccc(C#Cc3ccc(-c4cnc([C@@H]5CCCN5C(=O)NCc5ccccc5)[nH]4)cc3)cc2)[nH]1)c1ccccc1 [Compound 197]
The EC50 of the first is higher: > 1000 nM for the first, < 1 nM for the second. The second is the more potent here.

COC(=O)N[C@@H](C(=O)N1CCC[C@H]1c1ncc(-c2ccc(C#Cc3ccc(-c4cnc([C@@H]5CCCN5C(=O)[C@H](NC(=O)N5CC[C@@H](OC)C5)c5ccccc5)[nH]4)cc3)cc2)[nH]1)c1ccccc1 [Compound 271] and COC(=O)N[C@@H](C(=O)N1CCC[C@H]1c1ncc(-c2ccc(C#Cc3ccc(-c4cnc([C@@H]5CCCN5C(=O)[C@H](NC(=O)N5CC[C@H](F)C5)c5ccccc5)[nH]4)cc3)cc2)[nH]1)c1ccccc1 [Compound 270] cannot be ordered by EC50: < 1 nM for the first, < 1 nM for the second.

COC(=O)N[C@H](C(=O)N1CCC[C@H]1c1ncc(-c2ccc(C#Cc3ccc4c(ccc5nc([C@@H]6CCCN6C(=O)[C@@H](NC(=O)OC)C(C)C)[nH]c54)c3)cc2)[nH]1)C(C)C [Compound 1095] and COC(=O)N[C@H](C(=O)N1CCC[C@H]1c1nc2ccc(C#Cc3ccc(-c4cnc([C@@H]5CCCN5C(=O)[C@H](NC(=O)OC)C(C)C)[nH]4)cc3)cc2[nH]1)C(C)C [Compound 1053] cannot be ordered by EC50: < 1 nM for the first, < 1 nM for the second.

COC(=O)N[C@H](C(=O)N[C@@H](C)c1ncc(-c2ccc(C#Cc3ccc(-c4cnc([C@H](C)NC(=O)[C@@H](NC(=O)OC)C(C)C)[nH]4)cc3)cc2)[nH]1)C(C)C [Compound 951] and COC(=O)N[C@H](C(=O)N[C@@H](C)c1ncc(-c2ccc(C#Cc3ccc(-c4cnc([C@H](C)NC(=O)[C@@H](NC(=O)OC)[C@@H](C)O)[nH]4)cc3)cc2)[nH]1)[C@@H](C)O [Compound 969] cannot be ordered by EC50: < 1 nM for the first, < 1 nM for the second.

COC(=O)N[C@H](C(=O)N1CCC[C@H]1c1ncc(-c2ccc(C#Cc3ccc(-c4cnc([C@@H]5CCCN5C(=O)[C@@H](Nc5ncccn5)C(C)C)[nH]4)cc3)cc2)[nH]1)C(C)C [Compound 1003] and COC(=O)N[C@H](C(=O)N1CCC[C@H]1c1ncc(-c2ccc(C#Cc3ccc(-c4cnc([C@@H]5CCCN5C(=O)[C@@H](c5ccccc5)N(C)C)[nH]4)cc3)cc2)[nH]1)C(C)C [Compound 955] cannot be ordered by EC50: < 1 nM for the first, < 1 nM for the second.

COC(=O)N[C@H](C(=O)N1CCC[C@H]1c1nc2ccc(C#Cc3ccc4nc([C@@H]5CCCN5C(=O)[C@@H](NC(=O)OC)C(C)C)[nH]c4c3)cc2[nH]1)C(C)C [Compound 852] and COC(=O)N[C@H](C(=O)N1CCC[C@H]1c1ncc(C#Cc2ccc(-c3ccc4nc([C@@H]5CCCN5C(=O)[C@@H](NC(=O)OC)C(C)C)[nH]c4c3)nc2)[nH]1)C(C)C [Compound 1086] cannot be ordered by EC50: < 1 nM for the first, < 1 nM for the second.

COC(=O)N[C@H](C(=O)N1CCC[C@H]1c1ncc(-c2ccc(C#Cc3ccc(-c4cnc([C@@H]5CCCN5C(=O)[C@@H](c5ccccc5)N5CCN(CCO)CC5)[nH]4)cc3)cc2)[nH]1)C(C)C [Compound 958] and COC(=O)N[C@H](C(=O)N1CCC[C@H]1c1ncc(-c2ccc(C#Cc3ccc(-c4cnc([C@@H]5CCCN5C(=O)[C@@H](c5ccccc5)N5CCC(C)(O)CC5)[nH]4)cc3)cc2)[nH]1)C(C)C [Compound 970] cannot be ordered by EC50: < 1 nM for the first, < 1 nM for the second.

CS(=O)(=O)N[C@@H](C(=O)N1CCC[C@H]1c1ncc(-c2ccc(C#Cc3ccc(-c4cnc([C@@H]5CCCN5C(=O)[C@@H](c5ccccc5)N5CCCCC5)[nH]4)cc3)cc2)[nH]1)c1ccccc1 [Compound 231] and O=C(N[C@@H](C(=O)N1CCC[C@H]1c1ncc(-c2ccc(C#Cc3ccc(-c4cnc([C@@H]5CCCN5C(=O)[C@@H](c5ccccc5)N5CCCCC5)[nH]4)cc3)cc2)[nH]1)c1ccccc1)C1CC1 [Compound 208] cannot be ordered by EC50: < 1 nM for the first, < 1 nM for the second.

O=C(NCC(=O)N1CCC[C@H]1c1ncc(C#Cc2ccc(-c3cnc([C@@H]4CCCN4C(=O)CNC(=O)C4CC4)[nH]3)cc2)[nH]1)C1CC1 [Compound 113] and CC(C)[C@@H](NC(=O)C1CC1)C(=O)N1CCC[C@H]1C(=O)NCCc1ccc(C#Cc2cnc([C@@H]3CCCN3C(=O)[C@H](NC(=O)C3CC3)C(C)C)[nH]2)cc1 [Compound 127] fall in the same range of EC50: 10 to 999 nM for the first, 10 to 999 nM for the second.

COC[C@H](NC(=O)OC)C(=O)N1CCC[C@H]1c1ncc(-c2ccc(C#Cc3ccc4nc([C@@H]5CCCN5C(=O)[C@H](COC)NC(=O)OC)[nH]c4c3)cc2)[nH]1 [Compound 1037] and COC(=O)N[C@H](C(=O)N1CCC[C@H]1c1ncc(-c2ccc(C#Cc3ccc4nc([C@@H]5CCCN5C(=O)[C@@H](NC(=O)OC)C5CC5)[nH]c4c3)cc2)[nH]1)C1CC1 [Compound 1029] cannot be ordered by EC50: < 1 nM for the first, < 1 nM for the second.

COC(=O)N[C@H](C(=O)N1CCC[C@H]1c1ncc(-c2ccc(C#Cc3ccc4nc([C@@H]5CCCN5C(=O)[C@@H](NC(=O)OC)C5CCCC5)[nH]c4c3)cc2)[nH]1)C1CCCC1 [Compound 1025] and COC(=O)N[C@H](C(=O)N1CCC[C@H]1c1nc2ccc3cc(C#Cc4ccc(-c5cnc([C@@H]6CCCN6C(=O)[C@H](NC(=O)OC)c6ccccc6)[nH]5)cc4)ccc3c2[nH]1)C(C)C [Compound 1093] cannot be ordered by EC50: < 1 nM for the first, < 1 nM for the second.

O=C(N[C@@H](C(=O)N1CCC[C@H]1c1ncc(-c2ccc(C#Cc3ccc(-c4cnc([C@@H]5CCCN5C(=O)[C@H](NC(=O)C5CC5)c5ccccc5)[nH]4)cc3)cc2)[nH]1)c1ccccc1)C1CC1 [Compound 153] and O=C(N[C@@H](C(=O)N1CCC[C@H]1c1ncc(-c2ccc(C#Cc3ccc(-c4cnc([C@@H]5CCCN5C(=O)[C@H](NC(=O)N5CCCC5)c5ccccc5)[nH]4)cc3)cc2)[nH]1)c1ccccc1)N1CCCC1 [Compound 249] cannot be ordered by EC50: < 1 nM for the first, < 1 nM for the second.

First: C[C@H](NC(=O)[C@@H]1CCCN1C(=O)[C@H](NC(=O)C1CC1)c1ccccc1)c1ccc(C#Cc2cnc([C@@H]3CCCN3C(=O)[C@H](NC(=O)C3CC3)c3ccccc3)[nH]2)cc1 [Compound 132]
Second: COC(=O)N[C@@H](C(=O)N1CCC[C@H]1c1ncc(C#Cc2ccc(C#Cc3cnc([C@@H]4CCCN4C(=O)[C@H](NC(=O)OC)c4ccccc4)[nH]3)cc2)[nH]1)c1ccccc1 [Compound 304]
The EC50 of the first is higher: 10 to 999 nM for the first, < 1 nM for the second. The second is the more potent here.

CC(C)(C)OC(=O)N[C@@H](C(=O)N1CCC[C@H]1C(=O)Nc1ccc(C#Cc2ccc(-c3cnc([C@@H]4CCCN4C(=O)[C@H](NC(=O)OC(C)(C)C)c4ccccc4)[nH]3)cc2)cc1)c1ccccc1 [Compound 163] and CC(C)(C)OC(=O)N[C@@H](C(=O)N1CCC[C@H]1c1ncc(C#Cc2ccc(-c3ccc(-c4cnc([C@@H]5CCCN5C(=O)[C@H](NC(=O)OC(C)(C)C)c5ccccc5)[nH]4)cc3)cc2)[nH]1)c1ccccc1 [Compound 757] cannot be ordered by EC50: < 1 nM for the first, < 1 nM for the second.

COC(=O)N[C@@H](C(=O)N1CCC[C@H]1c1ncc(-c2ccc(C#Cc3ccc(-c4cnc([C@@H]5CCCN5C(=O)[C@H](NC(=O)OC)c5ccccc5)[nH]4)cn3)cc2)[nH]1)c1ccccc1 [Compound 1010] and COC(=O)N[C@@H](C(=O)N1CCC[C@H]1c1ncc(-c2ccc(C#Cc3cnc([C@@H]4CCCN4C(=O)[C@@H](c4ccccc4)N(C)C)[nH]3)cc2)[nH]1)c1ccccc1 [Compound 128] cannot be ordered by EC50: < 1 nM for the first, < 1 nM for the second.

First: CC(C)(C)OC(=O)N[C@@H](C(=O)N1CCC[C@H]1c1ncc(C#Cc2ccc(C#Cc3cnc([C@@H]4CCCN4C(=O)[C@H](NC(=O)OC(C)(C)C)c4ccccc4)[nH]3)cc2)[nH]1)c1ccccc1 [Compound 300]
Second: CN1CCN(C(=O)N[C@@H](C(=O)N2CCC[C@H]2c2ncc(C#Cc3ccc(C#Cc4cnc([C@@H]5CCCN5C(=O)[C@H](NC(=O)N5CCN(C)CC5)c5ccccc5)[nH]4)cc3)[nH]2)c2ccccc2)CC1 [Compound 310]
The EC50 of the first is lower: < 1 nM for the first, 1 to 9.9 nM for the second. The first is the more potent here.

First: C[C@@H](NC(=O)OC(C)(C)C)C(=O)N1CCC[C@H]1c1ncc(-c2ccc(C#Cc3ccc(-c4cnc([C@@H]5CCCN5C(=O)[C@@H](C)NC(=O)OC(C)(C)C)[nH]4)cc3)cc2)[nH]1 [Compound 151]
Second: CN(C)[C@@H](C(=O)N1CCC[C@H]1c1ncc(-c2ccc(C#Cc3ccc(-c4cnc([C@@H]5CCCN5C(=O)[C@@H](c5ccccc5)N(C)C)[nH]4)cc3)cc2)[nH]1)c1ccccc1 [Compound 160]
The EC50 of the first is higher: 10 to 999 nM for the first, < 1 nM for the second.

O=C([C@H](O)c1ccccc1)N1CCC[C@H]1c1ncc(C#Cc2ccc(-c3cnc([C@@H]4CCCN4C(=O)[C@H](O)c4ccccc4)[nH]3)cc2)[nH]1 [Compound 112] and O=C(N[C@@H](C(=O)N1CCC[C@H]1c1ncc(C#Cc2ccc(-c3ccc(-c4cnc([C@@H]5CCCN5C(=O)[C@H](NC(=O)N5CC[C@@H](O)C5)c5ccccc5)[nH]4)cc3)cc2)[nH]1)c1ccccc1)N1CC[C@@H](O)C1 [Compound 763] cannot be ordered by EC50: < 1 nM for the first, < 1 nM for the second.
